Measurements as given in patent publication US4808729A, “Leukotriene LTD4 and LTB4 antagonists” (G. D. Searle & Co., priority 1987, dated 1989).

What was measured:
[1] = target: T1, guinea pig lung receptors (LTD4 receptor) (Cavia porcellus, UniProt Q2NNR5); experiment: Leukotriene (LTD4) Receptor Binding Assay; conditions: LTD4 Antagonism; guinea pig lung membrane
T1 construct: guinea pig lung receptors, isolated from guinea pig lung membrane; from tissue; host or cells: guinea pig lung membrane
T1 sequence (Q2NNR5 1-340): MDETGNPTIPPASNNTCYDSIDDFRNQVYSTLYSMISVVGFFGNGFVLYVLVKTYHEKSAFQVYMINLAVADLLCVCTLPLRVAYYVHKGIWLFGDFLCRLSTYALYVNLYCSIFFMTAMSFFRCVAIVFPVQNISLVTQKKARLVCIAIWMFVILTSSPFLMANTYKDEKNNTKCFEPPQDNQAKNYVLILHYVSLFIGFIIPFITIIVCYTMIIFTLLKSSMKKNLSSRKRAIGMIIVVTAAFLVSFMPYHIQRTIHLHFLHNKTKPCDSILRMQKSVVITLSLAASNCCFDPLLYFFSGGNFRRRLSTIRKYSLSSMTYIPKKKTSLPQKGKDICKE
Procedure: Leukotriene Receptor Binding Assay (12c01)
The in vitro LTD4 receptor binding assay is carried out as follows:
Specific binding of titrated LTD4 to a fixed number of guinea pig lung receptors, isolated from guinea pig lung membrane, is measured in the presence and absence of test compound. The initial screening dose (1×10^-5 M is considered active if the specific binding of LTD4 is reduced by 45% or more. Active compounds are tested in a dose-response manner to determine IC50 values.

[2] = target: T2, guinea pig ileum (LTD4-induced contraction) (Cavia porcellus, UniProt Q2NNR5); experiment: LTD4 Antagonism in Guinea Pig Ileum; assay type: cell-based; conditions: pA2, Schild analysis
T2 construct: Fresh segments of guinea pig ileum; from tissue; host or cells: guinea pig ileum segments
T2 sequence (Q2NNR5 1-340): T1 sequence (Q2NNR5 1-340)
Procedure: LTD4 Antagonism in Guinea Pig Ileum
Fresh segments of guinea pig ileum were suspended in 2 ml. tissue baths containing oxygenated modified Tyrodes solution. After an equilibration period, an agonist dose-response curve was generated by exposing each tissue to 4 different LTD4 doses and measuring the ensuing contractile heights. The ileum segments were washed and rested between exposures to agonist. Following this, the tissues were incubated with a single concentration of test compound and the agonist dose-response procedure was repeated. The dose ratio is a measure of the antagonist's ability to shift the agonist dose-response curve to the right. It is derived as the concentration of agonist necessary to reach a given response level in the presence (A') versus the absence (A) of antagonist. For example, if the test concentration of compound had no effect on the agonist-induced response (A'=A) the dose-ratio would approximate 1. […] One dose-ratio value is determined for each strip of ileum used to test antagonist. […] Schild analysis examines the linearity of the function described by the dose-ratios written as log [(A'/A)-1] versus antagonist concentration. If the linearity is […] and the slope approximates 1, inhibition is considered to be competitive. The pA2 is the negative log of the antagonist concentration required to produce a dose-ratio of 2. This value is considered to be a measure of the affinity of the competitive antagonist.

[3] = system: LTD4 action on respiratory smooth muscle; experiment: In Vivo Bronchoconstriction Assay (LTD4-induced); set-up: species or system guinea pig; conditions: LTD4 Antagonism, guinea pigs, 2000 units LTD4 IV
Procedure: The compounds are tested in vivo as follows. Adult male fasted Hartly guinea pigs weighing 300-350 g are pretreated with pyrilamine and indomethacin to block the bronchoconstricture effects of endogenous histamine and the synthesis of thromboxane A2 respectively. Compounds of the invention are administered IV or IG at approximate times prior to the IV administration of 2000 units of LTD4. Intratracheal pressure is monitored prior to and subsequent to LTD4 in animals anesthetized with pentobarbital and attached to a rodent respirator. Compounds which antagonize the direct component of LTD4 action on respiratory smooth muscle inhibit intratracheal insufflation pressure increases (P< or =0.05) caused by LTD4. FPL 55712 is used as a control.

LTB4 receptor = target: T3, LTB4 receptor (Homo sapiens, UniProt Q15722); experiment: LTB4 Receptor Binding Assay (human neutrophils); conditions: LTB4 Antagonism, 0.6 nano M (3H) LTB4, 0° C., 45 minutes
T3 construct: Neutrophils were purified from venous blood of normal human donors; endogenous in cells; host or cells: human blood neutrophils
T3 sequence (Q15722 whole entry): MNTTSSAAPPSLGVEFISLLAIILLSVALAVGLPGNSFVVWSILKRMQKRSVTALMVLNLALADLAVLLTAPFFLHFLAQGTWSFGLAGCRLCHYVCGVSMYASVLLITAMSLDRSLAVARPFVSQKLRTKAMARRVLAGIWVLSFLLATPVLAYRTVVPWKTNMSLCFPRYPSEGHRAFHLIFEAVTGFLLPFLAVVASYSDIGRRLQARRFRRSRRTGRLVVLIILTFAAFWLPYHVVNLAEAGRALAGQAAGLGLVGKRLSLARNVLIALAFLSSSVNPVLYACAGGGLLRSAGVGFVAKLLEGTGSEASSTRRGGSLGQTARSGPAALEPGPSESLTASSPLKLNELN
Procedure: Preparation of Human Neutrophils
Neutrophils were purified from venous blood of normal human donors using standard techniques of dextran sedimentation, centrifugation on Histopaque sterile solution (Sigma) and hypotonic lysis of erythrocytes (Boyum, A., Isolation of Leukocytes from Human Blood: Further Observations. Scand. J. Lab. Clin. Invest. 21 (Suppl. 97): 31, 1968). The purity of isolated neutrophils was ≥95%.
LTB4 Receptor Binding Assay
Neutrophils (4-6×10^6) in 1 ml Hanks' balanced salt solution containing 10 mM HEPES buffer (HBSS), pH 7.4 and […] nordihydroguaiaretic acid were incubated with 0.6 nano M (^3 H) LTB4 in the presence or absence of test compounds. The incubation was carried out at 0° C. for 45 minutes and terminated by adding 5 ml of ice-cold HBSS followed by rapid filtration of incubation mixture under vacuum through GF/C glass fiber filters. The filters were further washed with 10 ml HBSS and radioactivity was determined. Specific binding was defined as the difference between total binding and nonspecific binding which was not displaced by 10^-7 M unlabeled LTB4. All data refer to specific binding.

| IC50 [1] [µM] | Kb [2] [µM] | IC50 (LTB4 receptor) [µM] | SMILES | In Vivo Bronchoconstriction Assay (% Inhibition at 5 mpk. IV) [3] [%] |
| --- | --- | --- | --- | --- |
| 0.591 | 0.00891 | – | CCCc1c(OCCCSCC2CSC(CCC(=O)O)(CCC(=O)O)S2)ccc(C(C)=O)c1O (stereo not drawn) [Example 35, 4-[[[3-(4-Acetyl-3-hydroxy-2-propylphenoxy)propyl]thio]methyl]-1,3-dithiolane-2,2-dipropanoic acid] | 93 |
| 5.02 | 0.00955 | – | CCCc1c(OCCCSCC2CSC(C)(CCCC(=O)O)S2)ccc(C(C)=O)c1O (stereo not drawn) [Example 61, 4-[[[3-(4-Acetyl-3-hydroxy-2-propylphenoxy)propyl]thio]methyl]-2-methyl-1,3-dithiolane-2-butanoic acid] | 95.6 |
| 9.37 | 0.0145 | – | CCCc1c(OCCCSCC2COC(C)(CCC(=O)O)S2)ccc(C(C)=O)c1O (stereo not drawn) [Example 38, 4-[[[3-(4-Acetyl-3-hydroxy-2-propylphenoxy)propyl]thio]methyl]-2-methyl-1,3-oxathiolane-2-propanoic acid] | 87.2 |
| – | – | 0.06 | CCCc1c(OCCCSCC2CSC(C)(CCCC(=O)O)S2)ccc(C(C)=O)c1OC (stereo not drawn) [Example 81, 4-[[[3-(4-Acetyl-3-methoxy-2-propylphenoxy)propyl]thio]methyl]-2-methyl-1,3-dithiolane-2-butanoic acid] | – |
| 9.47 | 0.0145 | – | CCCc1c(OCCCSCC2CSC(C)(CCC(=O)O)S2)ccc(C(C)=O)c1O (stereo not drawn) [Example 50, 4-[[[3-(4-Acetyl-3-hydroxy-2-propylphenoxy)propyl]thio]methyl]-2-methyl-1,3-dithiolane-2-propanoic acid] | 91.2 |
| 7.1 | – | – | CCCc1c(OCCCSCC2COC(C)(CCCC(=O)O)S2)ccc(C(C)=O)c1O (stereo not drawn) [Example 84] | 85.1 |
| 6.24 | 0.0269 | – | CCCc1c(OCCCSCC2COC(CCC(=O)O)(c3ccccc3)S2)ccc(C(C)=O)c1O (stereo not drawn) [Example 70, 4-[[[3-(4-Acetyl-3-hydroxy-2-propylphenoxyl]propyl]thio]methyl]-2-phenyl-1,3-oxathiolane-2-propanoic acid] | 59.2 |
| 3.56 | 0.0214 | – | CCCc1c(OCCCSCC2COC(CCC(=O)O)(CCC(=O)O)S2)ccc(C(C)=O)c1O (stereo not drawn) [Example 3, 4-[[[3-(4-Acetyl-3-hydroxy-2-propylphenoxy)propyl]thio]methyl]-1,3-oxathiolane-2,2-dipropanoic acid] | 96.9 |
